Results: the NIST ThermoML archive (doi:10.1021/acs.jced.8b00681)

Assay: mn = molality of the nth substance listed, in mol/kg
Settings: 100 kPa, Liquid, Frequency=2 MHz, Linear variable-path acoustic interferometer

OC[C@H]1O[C@H](OC[C@H]2O[C@H](O[C@]3(CO)O[C@H](CO)[C@@H](O)[C@@H]3O)[C@H](O)[C@@H](O)[C@@H]2O)[C@H](O)[C@@H](O)[C@H]1O [D-raffinose] + O
speed of sound [m/s]
Settings	m1 = 0.05849	m1 = 0.0723	m1 = 0.087	m1 = 0.1083	m1 = 0.1225	m1 = 0.143
288.15 K	1478.1	1481	1484.1	1488.6	1491.6	1496
298.15 K	1509	1512	1515.1	1519.7	1522.7	1527.1
308.15 K	1531.9	1534.8	1537.9	1542.3	1545.3	1549.7
318.15 K	1548.3	1551.1	1554.1	1558.5	1561.5	1565.8

O=P([O-])(O)O.[Na+] [sodium dihydrogen phosphate] + O
speed of sound [m/s]
Settings	288.15 K	298.15 K	308.15 K	318.15 K
m1 = 0.5	1516.7	1547.3	1567.5	1582.6
m1 = 1	1563.2	1598	1618.9	1638.8
m1 = 1.5	1607.3	1649	1675	1704.8
m1 = 2	1649.2	1700.3	1735.7	1782.8

O=P([O-])([O-])[O-].[K+].[K+].[K+] [tripotassium phosphate] + O
speed of sound [m/s]
Settings	288.15 K	298.15 K	308.15 K	318.15 K
m1 = 0.5	1586.2	1598.1	1609.9	1622.6
m1 = 1	1693.5	1698.6	1704.1	1708
m1 = 1.5	1789.2	1791.8	1793.8	1796
m1 = 2	1878.3	1882.5	1885.8	1889.4

OC[C@H]1OC(O)C[C@@H](O)[C@@H]1O (stereo partly drawn) [2-deoxy-D-glucose] + O
speed of sound [m/s]
Settings	m1 = 0.04452	m1 = 0.06258	m1 = 0.08916	m1 = 0.09804	m1 = 0.1031	m1 = 0.1275
288.15 K	1468.5	1469.6	1471.1	1471.6	1471.9	1473.2
298.15 K	1499.2	1500.1	1501.4	1501.9	1502.1	1503.3
308.15 K	1522.1	1523	1524.3	1524.7	1524.9	1526.1
318.15 K	1538.2	1539	1540.1	1540.5	1540.7	1541.6

O=C[C@H](O)[C@@H](O)[C@H](O)[C@H](O)CO [D-glucose] + O
speed of sound [m/s]
Settings	m1 = 0.054	m1 = 0.07085	m1 = 0.09905	m1 = 0.1196	m1 = 0.1221	m1 = 0.1388
288.15 K	–	1470.8	1472.7	1474.2	1474.3	1475.5
298.15 K	–	1501.1	1502.9	1504.2	1504.3	1505.3
308.15 K	1523.1	1524.7	1527.4	1529.3	1529.5	1531.1
318.15 K	–	1540.7	1543.2	1545	1545.2	1546.6

N.O=P(O)(O)O [ammonium dihydrogen phosphate] + O
speed of sound [m/s]
Settings	288.15 K	298.15 K	308.15 K	318.15 K
m1 = 0.5	1506.4	1534.2	1555.1	1570.8
m1 = 1	1554.5	1579.6	1598.1	1610.2
m1 = 1.5	1609.2	1629.9	1645.1	1654.4
m1 = 2	1672.6	1686.2	1697.2	1703.1

O=C[C@H](O)[C@H](O)[C@H](O)CO [D-ribose] + O
speed of sound [m/s]
Settings	m1 = 0.04514	m1 = 0.06075	m1 = 0.08352	m1 = 0.112	m1 = 0.1348	m1 = 0.1523
288.15 K	1468.7	1469.7	1471.1	1472.9	1474.3	1475.4
298.15 K	1499.1	1499.9	1501	1502.5	1503.6	1504.5
308.15 K	1522	1522.7	1523.7	1525.1	1526.1	1526.9
318.15 K	1538.3	1538.9	1539.9	1541	1542	1542.8

CO[C@H]1O[C@H](CO)[C@@H](O)[C@H](O)[C@H]1O [methyl-α-D-glucopyranoside] + O
speed of sound [m/s]
Settings	m1 = 0.05678	m1 = 0.06847	m1 = 0.08732	m1 = 0.1192	m1 = 0.1293	m1 = 0.1466
288.15 K	1470.7	1471.7	1473.2	1475.8	1476.6	1478
298.15 K	1501.2	1502	1503.5	1506	1506.7	1508
308.15 K	1524	1524.9	1526.3	1528.6	1529.4	1530.6
318.15 K	1540.5	1541.3	1542.7	1545	1545.7	1546.9
